24 molecules from US7662832B2, “Pyrrolo[2,3-c]pyridine derivatives and processes for the preparation thereof” (priority 2004, dated 2010) can be followed below.

Experiment [1] deals with basal gastric acid secretion. Nature of the experiment: Inhibitory effects on basal gastric acid secretion in pylorus-ligated rats (Shay's rat model). Type of experiment: in vivo, Sprague Dawley (SD) rats. The note with it: oral, one hour before pylorus ligation, total acid output 5 hours after ligation. The procedure:
Inhibitory effects of the compounds of the present invention on basal gastric acid secretion were performed according to Shay's rat model (Shay, H., et al., 1945, gastroenterology, 5, 43-61). Male Sprague Dawley (SD) rats (200±10 g body weight) were divided into […] (n=5) and fasted for 24 hours with free access to water. Control group was orally administered with 0.5% methylcellulose alone and the other groups were orally administered with test compounds suspended in 0.5% methylcellulose solution at doses of 1, 3 and 10 mg/kg/5 ml one hour before pylorus ligation.
Under ether anesthesia, the abdomens of the rats were incised and then the pylorus was ligated. 5 hours after ligation, the animals were sacrificed, and the gastric contents were collected. The collected contents were centrifuged at 1,000×g for 10 minutes to obtain the gastric juice. Total acid output was measured by 0.01N NaOH volume (ueq/ml) for automatic titration of the gastric juice to pH 7.0 and the ED50s of test compounds were calculated using the Litchfield-Wilcoxon method. % inhibitory activity was calculated from the following equation and the results are shown in Table 2. % inhibitory activity of test compound=(total acid output of control group−total acid output of the group treated with test compounds)/total acid output of control group×100

Experiment [2] concerns the target Proton Pump (H^+/K^+-ATPase) (Sus scrofa, UniProt P19156). Nature of the experiment: Inhibitory effects on proton pump (H^+/K^+-ATPase) activity. The note with it: hog gastric vesicles; K^+ stimulated H^+/K^+-ATPase activity; 30 minutes at 37° C. Type of experiment: biochemical.

Counter-ions that a name gives are not always drawn.

Proton Pump (H^+/K^+-ATPase), sequence (P19156 2-1034 limits assumed): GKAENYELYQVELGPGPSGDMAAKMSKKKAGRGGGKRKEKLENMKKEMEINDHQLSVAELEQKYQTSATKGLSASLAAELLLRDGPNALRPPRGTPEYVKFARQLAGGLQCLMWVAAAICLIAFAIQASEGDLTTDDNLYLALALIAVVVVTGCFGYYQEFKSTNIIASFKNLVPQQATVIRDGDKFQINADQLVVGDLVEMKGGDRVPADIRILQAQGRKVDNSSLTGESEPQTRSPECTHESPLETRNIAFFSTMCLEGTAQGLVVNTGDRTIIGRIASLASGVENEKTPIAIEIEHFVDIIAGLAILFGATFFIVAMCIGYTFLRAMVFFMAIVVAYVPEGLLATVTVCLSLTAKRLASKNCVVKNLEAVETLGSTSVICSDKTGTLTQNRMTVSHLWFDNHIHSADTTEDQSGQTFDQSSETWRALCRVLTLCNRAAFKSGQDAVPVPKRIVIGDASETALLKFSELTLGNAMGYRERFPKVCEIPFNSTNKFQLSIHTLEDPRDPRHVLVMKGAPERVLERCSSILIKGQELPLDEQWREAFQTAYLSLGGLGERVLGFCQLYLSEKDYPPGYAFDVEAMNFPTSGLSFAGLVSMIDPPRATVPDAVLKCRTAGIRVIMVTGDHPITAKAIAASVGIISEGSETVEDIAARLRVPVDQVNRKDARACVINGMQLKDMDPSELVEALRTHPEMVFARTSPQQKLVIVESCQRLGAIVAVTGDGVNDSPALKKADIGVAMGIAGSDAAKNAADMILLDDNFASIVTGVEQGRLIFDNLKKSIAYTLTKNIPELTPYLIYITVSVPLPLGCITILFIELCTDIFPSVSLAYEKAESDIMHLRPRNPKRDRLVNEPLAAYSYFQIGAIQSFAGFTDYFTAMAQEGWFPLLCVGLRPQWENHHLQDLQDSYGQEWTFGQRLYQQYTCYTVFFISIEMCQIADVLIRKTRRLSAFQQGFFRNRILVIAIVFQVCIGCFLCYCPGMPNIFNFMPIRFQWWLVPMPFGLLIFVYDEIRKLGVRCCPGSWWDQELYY
Proton Pump (H^+/K^+-ATPase), sequence (P18434 whole entry partner): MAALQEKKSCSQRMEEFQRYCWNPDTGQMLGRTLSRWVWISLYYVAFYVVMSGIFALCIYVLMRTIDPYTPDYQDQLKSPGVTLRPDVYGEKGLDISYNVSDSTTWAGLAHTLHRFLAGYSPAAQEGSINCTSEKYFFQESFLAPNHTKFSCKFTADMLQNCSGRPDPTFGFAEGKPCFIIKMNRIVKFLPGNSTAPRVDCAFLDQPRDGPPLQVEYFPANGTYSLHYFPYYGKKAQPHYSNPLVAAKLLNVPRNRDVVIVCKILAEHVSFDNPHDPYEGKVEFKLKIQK

In experiment [1], `CCCn1c(C)c(C)c2ccnc(N3CCc4ccccc4C3)c21.Cl` [Example 473, 1-propyl-7-(1,2,3,4-tetrahydroisoquinolin-2-yl)-2,3-dimethyl-1H-pyrrolo[2,3-c]pyridine hydrochloride] yielded an ED50 of 2.8 mg/kg. Also, in experiment [2], the 50% inhibitory concentration (IC50) is 470 nM. The corresponding values for `Cc1ccc(Cn2c(C)c(C)c3ccnc(N4CCc5ccccc5C4)c32)cc1.Cl` [Example 477, 1-(4-methylbenzyl)-7-(1,2,3,4-tetrahydroisoquinolin-2-yl)-2,3-dimethyl-1H-pyrrolo[2,3-c]pyridine hydrochloride] are 2 mg/kg and 300 nM. In the case of `Cc1c(C)n(Cc2ccc(F)cc2)c2c(NCc3ccc(Cl)cc3)nccc12.Cl` [Example 218, 7-(4-chlorobenzylamino)-1-(4-fluorobenzyl)-2,3-dimethyl-1H-pyrrolo[2,3-c]pyridine hydrochloride], the 50% effect level in experiment [1] (ED50) was put at a dose of 4.1 mg/kg. Molecule `Cc1[nH]c2c(-c3ccc4ccccc4c3)nccc2c1C.Cl` [Example 402, 2,3-dimethyl-7-(naphthalen-2-yl)-1H-pyrrolo[2,3-c]pyridine hydrochloride] registered an ED50 in experiment [1] of 11.2 mg/kg. In addition, it took 63 nM to reach half-maximal inhibition in experiment [2] (IC50). Molecule `Cc1c(C)n(Cc2cccc(F)c2)c2c(N3CCc4ccccc4C3C)nccc12.Cl` (centres unmarked) [Example 557, 2-[1-(3-fluorobenzyl)-2,3-dimethyl-1H-pyrrolo[2,3-c]pyridin-7-yl]-1-methyl-1,2,3,4-tetrahydroisoquinoline hydrochloride] registered an ED50 in experiment [1] of 4.1 mg/kg. Also, it took 146 nM to reach half-maximal inhibition in experiment [2] (IC50). `Cc1c(C)n(Cc2cccc(F)c2)c2c(NCc3ccc(F)cc3)nccc12.Cl` [Example 207, 1-(3-fluorobenzyl)-7-(4-fluorobenzylamino)-2,3-dimethyl-1H-pyrrolo[2,3-c]pyridine hydrochloride]: the ED50 in experiment [1] is 8.3 mg/kg. Turning to `Cc1c(C)n(C)c2c(N3CCc4ccccc4C3)nccc12.Cl` [Example 470, 7-(1,2,3,4-tetrahydroisoquinolin-2-yl)-1,2,3-trimethyl-1H-pyrrolo[2,3-c]pyridine hydrochloride], the 50% effect level in experiment [1] (ED50) was put at a dose of 4.4 mg/kg. Also, the IC50 in experiment [2] worked out at 320 nM. In the case of `C=CCn1c(C)c(C)c2ccnc(N3CCc4ccccc4C3)c21.Cl` [Example 484, 1-allyl-7-(1,2,3,4-tetrahydroisoquinolin-2-yl)-2,3-dimethyl-1H-pyrrolo[2,3-c]pyridine hydrochloride], it took a dose of 1.4 mg/kg to reach the 50% effect level in experiment [1] (ED50). In experiment [2], this molecule registered an IC50 of 3.7 nM. The molecule `C=CCn1c(C)c(C)c2ccnc(N3CCc4ccccc4C3C)c21.Cl` (centres unmarked) [Example 553, 2-(1-allyl-2,3-dimethyl-1H-pyrrolo[2,3-c]pyridin-7-yl)-1-methyl-1,2,3,4-tetrahydroisoquinoline hydrochloride] returned an ED50 in experiment [1] of 2.1 mg/kg. This molecule also returned an IC50 in experiment [2] of 26 nM. As to `Cc1ccccc1CNc1nccc2c(C)c(C)n(CC(C)C)c12.Cl` [Example 210, 1-isobutyl-2,3-dimethyl-7-(2-methylbenzylamino)-1H-pyrrolo[2,3-c]pyridine hydrochloride], it took a dose of 1.9 mg/kg to reach the 50% effect level in experiment [1] (ED50). The IC50 in experiment [2] was 54 nM. Turning to `Cc1c(C)n(Cc2ccc(C(C)(C)C)cc2)c2c(N3CCc4ccccc4C3)nccc12.Cl` [Example 507, 1-(4-tert-butylbenzyl)-7-(1,2,3,4-tetrahydroisoquinolin-2-yl)-2,3-dimethyl-1H-pyrrolo[2,3-c]pyridine hydrochloride], the ED50 in experiment [1] came out at 3.1 mg/kg.

`Cc1c(C)n(Cc2ccccc2)c2c(N3CCc4ccccc4C3)nccc12.Cl` [Example 469, 1-benzyl-7-(1,2,3,4-tetrahydroisoquinolin-2-yl)-2,3-dimethyl-1H-pyrrolo[2,3-c]pyridine hydrochloride]: in experiment [1], the ED50 came out at 1.4 mg/kg. For the same molecule, the IC50 in experiment [2] came out at 52 nM. For `C=COCCn1c(C)c(C)c2ccnc(N3CCc4ccccc4C3)c21.Cl` [Example 511, 1-(2-vinyloxyethyl)-7-(1,2,3,4-tetrahydroisoquinolin-2-yl)-2,3-dimethyl-1H-pyrrolo[2,3-c]pyridine hydrochloride], in that order: 2.1 mg/kg and 420 nM.

`Cc1c(C)n(Cc2ccccc2)c2c(N(C)Cc3ccc(F)cc3)nccc12` [Example 141, 1-benzyl-7-[N-(4-fluorobenzyl)-N-methyl]amino-2,3-dimethyl-1H-pyrrolo[2,3-c]pyridine hydrochloride] gave an ED50 in experiment [1] of 2.3 mg/kg. Also, the IC50 in experiment [2] was 64 nM. In the case of `Cc1c(C)n(CC(C)C)c2c(NCc3ccc(F)cc3)nccc12.Cl` [Example 208, 7-(4-fluorobenzylamino)-1-isobutyl-2,3-dimethyl-1H-pyrrolo[2,3-c]pyridine hydrochloride], in experiment [1], the ED50 is 1.3 mg/kg. In experiment [2], this molecule showed an IC50 of 94 nM. As to `COc1ccc(Cn2c(C)c(C)c3ccnc(N4CCc5ccccc5C4)c32)cc1.Cl` [Example 482, 1-(4-methoxybenzyl)-7-(1,2,3,4-tetrahydroisoquinolin-2-yl)-2,3-dimethyl-1H-pyrrolo[2,3-c]pyridine hydrochloride], in experiment [1], the 50% effective dose (ED50) is 2.4 mg/kg. Half-maximal inhibition in experiment [2] (IC50) required 360 nM.

With `C=CCn1c(C)c(C)c2ccnc(N3CCc4cc(F)ccc4C3C)c21.Cl` (centres unmarked) [Example 563, 2-(1-allyl-2,3-dimethyl-1H-pyrrolo[2,3-c]pyridin-7-yl)-6-fluoro-1-methyl-1,2,3,4-tetrahydroisoquinoline hydrochloride], in experiment [1], the 50% effect level (ED50) was put at a dose of 3.5 mg/kg. This molecule also yielded an IC50 in experiment [2] of 49 nM.

`CCCn1c(C)c(C)c2ccnc(NCc3ccc(Cl)cc3)c21.Cl` [Example 229, 7-(4-chlorobenzylamino)-2,3-dimethyl-1-propyl-1H-pyrrolo[2,3-c]pyridine hydrochloride]: it took a dose of 2.2 mg/kg to reach the 50% effect level in experiment [1] (ED50). Besides, the IC50 in experiment [2] was found to be 240 nM. For `Cc1nc(Cn2c(C)c(C)c3ccnc(N4CCc5ccccc5C4)c32)cs1.Cl` [Example 474, 1-(2-methylthiazol-4-ylmethyl)-7-(1,2,3,4-tetrahydroisoquinolin-2-yl)-2,3-dimethyl-1H-pyrrolo[2,3-c]pyridine hydrochloride], it took a dose of 11.9 mg/kg to reach the 50% effect level in experiment [1] (ED50). In experiment [2], this molecule registered an IC50 of 110 nM.

With `Cc1c(C)n(Cc2ccccc2)c2c(N3CCc4ccccc4C3)nc(C(=O)N3CCN(C)CC3)cc12` [Example 819, [1-benzyl-7-(3,4-dihydro-1H-isoquinolin-2-yl)-2,3-dimethyl-1H-pyrrolo[2,3-c]pyridin-5-yl]-(4-methylpiperazin-1-yl)-methanone hydrochloride], the IC50 in experiment [2] turned out to be 12 nM. This lies in the double-digit nanomolar range. On the same count and under the same terms, the figure for `Cc1c(C)n(Cc2ccccc2)c2c(N3CCc4ccccc4C3)nc(C(=O)n3ccnc3)cc12` [Example 839, [1-benzyl-7-(3,4-dihydro-1H-isoquinolin-2-yl)-2,3-dimethyl-1H-pyrrolo[2,3-c]pyridin-5-yl]-(imidazol-1-yl)-methanone hydrochloride] is 257 nM; for `Cc1c(C)n(Cc2cccc(F)c2)c2c(N3CCc4ccccc4C3)nc(N)cc12` [Example 847, 7-(3,4-dihydro-1H-isoquinolin-2-yl)-1-(3-fluorobenzyl)-2,3-dimethyl-1H-pyrrolo[2,3-c]pyridin-5-amine hydrochloride] it is 62 nM. As for `Cc1[nH]c2c(N3CCc4ccccc4C3)nccc2c1C.Cl` [Example 468, 7-(1,2,3,4-tetrahydroisoquinolin-2-yl)-2,3-dimethyl-1H-pyrrolo[2,3-c]pyridine hydrochloride], it took a dose of 5.2 mg/kg to reach the 50% effect level in experiment [1] (ED50). For the same molecule, the IC50 in experiment [2] turned out to be 190 nM. `CC=CCn1c(C)c(C)c2ccnc(NCc3ccccc3)c21` [Example 183, 7-benzylamino-1-(but-2-enyl)-2,3-dimethyl-1H-pyrrolo[2,3-c]pyridine hydrochloride] gave an IC50 in experiment [2] of 220 nM.
